The subject of data set [1] is HepG2. The data set can be described thus: Increase in glucose consumption in human HepG2 cells assessed as glucose content in medium at 10^-6 M measured after 24 hrs by glucose oxidase method relative to control. Type of data set: functional.
The subject of data set [2] is HepG2. The data set can be described thus: Activation of AMPKalpha in human HepG2 cells assessed as induction of AMPKalpha phosphorylation at Thr172 residue at 10 uM by Western blot analysis. Type of data set: cell-based.
Data set [3] has as its target AMP-activated protein kinase, AMPK (Homo sapiens) (UniProt P54646+O43741+P54619+Q9UGJ0+Q9Y478+Q13131+Q9UGI9). The data set can be described thus: Activation of AMPK in human HepG2 cells assessed as induction of ACC phosphorylation at Ser79 residue at 10 uM by Western blot analysis. Type of data set: cell-based.
For data set [4], the system named is HepG2. The data set can be described thus: Increase in glucose consumption in human HepG2 cells assessed as glucose content in medium at 10^-6 M measured after 24 hrs by glucose oxidase method relative to berberine. Type of data set: functional.
The subject of data set [5] is HepG2. The experiment in a line: Increase in glucose consumption in human HepG2 cells assessed as glucose content in medium at 10^-6 M measured after 24 hrs by glucose oxidase method relative to metformin. Type of data set: functional.
Data set [6] concerns HepG2. The experiment in a line: Increase in glucose consumption in human HepG2 cells assessed as glucose content in medium at 10^-6 M measured after 24 hrs by glucose oxidase method relative to rosiglitazone. Type of data set: functional.
Data set [7] concerns the target T1, Peroxisome proliferator-activated receptor gamma (Homo sapiens, UniProt P37231).
T1 sequence (P37231 whole entry): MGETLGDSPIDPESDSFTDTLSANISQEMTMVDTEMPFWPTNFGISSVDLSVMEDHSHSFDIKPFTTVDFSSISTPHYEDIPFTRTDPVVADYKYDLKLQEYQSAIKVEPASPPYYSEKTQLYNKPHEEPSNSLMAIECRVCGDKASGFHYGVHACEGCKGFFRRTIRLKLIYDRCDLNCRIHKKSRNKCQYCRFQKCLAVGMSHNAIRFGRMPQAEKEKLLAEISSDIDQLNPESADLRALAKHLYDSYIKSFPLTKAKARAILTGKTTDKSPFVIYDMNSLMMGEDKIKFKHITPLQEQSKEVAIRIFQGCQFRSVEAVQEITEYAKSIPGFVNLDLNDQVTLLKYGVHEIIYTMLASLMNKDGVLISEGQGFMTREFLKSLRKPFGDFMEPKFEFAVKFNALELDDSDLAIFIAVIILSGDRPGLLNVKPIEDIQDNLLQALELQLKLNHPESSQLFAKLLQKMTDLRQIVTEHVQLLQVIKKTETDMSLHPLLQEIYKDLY
The data set can be described thus: Transactivation of human PPARgamma transfected in U2OS cells co-tranfected with human RXR measured after 24 hrs by luciferase reporter assay. Type of data set: cell-based. For orientation: A reporter such as luciferase makes a cellular process visible.

Data set [8] can be described thus: Oral bioavailability in rat. The note with it: in vivo. Type of data set: ADME, organism-based.
The target of data set [9] is AMP-activated protein kinase (AMPK) alpha-1/beta-1/gamma-1 (Homo sapiens) (UniProt P54619+Q9Y478+Q13131). The data set can be described thus: Agonist activity at AMPKalpha1beta1gamma1 (unknown origin). Type of data set: protein-complex assay.
Chain of AMP-activated protein kinase (AMPK) alpha-1/beta-1/gamma-1 (Homo sapiens) (P54619 whole entry): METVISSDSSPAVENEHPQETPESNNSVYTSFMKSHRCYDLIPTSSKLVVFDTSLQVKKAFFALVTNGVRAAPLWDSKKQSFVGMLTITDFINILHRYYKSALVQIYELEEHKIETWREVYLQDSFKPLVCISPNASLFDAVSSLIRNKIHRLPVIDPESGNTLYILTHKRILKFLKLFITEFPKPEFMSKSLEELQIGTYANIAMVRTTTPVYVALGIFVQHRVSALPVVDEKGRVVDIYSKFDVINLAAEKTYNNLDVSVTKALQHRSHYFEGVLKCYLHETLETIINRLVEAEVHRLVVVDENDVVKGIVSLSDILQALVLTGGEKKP
Chain of AMP-activated protein kinase (AMPK) alpha-1/beta-1/gamma-1 (Homo sapiens) (Q13131 whole entry partner): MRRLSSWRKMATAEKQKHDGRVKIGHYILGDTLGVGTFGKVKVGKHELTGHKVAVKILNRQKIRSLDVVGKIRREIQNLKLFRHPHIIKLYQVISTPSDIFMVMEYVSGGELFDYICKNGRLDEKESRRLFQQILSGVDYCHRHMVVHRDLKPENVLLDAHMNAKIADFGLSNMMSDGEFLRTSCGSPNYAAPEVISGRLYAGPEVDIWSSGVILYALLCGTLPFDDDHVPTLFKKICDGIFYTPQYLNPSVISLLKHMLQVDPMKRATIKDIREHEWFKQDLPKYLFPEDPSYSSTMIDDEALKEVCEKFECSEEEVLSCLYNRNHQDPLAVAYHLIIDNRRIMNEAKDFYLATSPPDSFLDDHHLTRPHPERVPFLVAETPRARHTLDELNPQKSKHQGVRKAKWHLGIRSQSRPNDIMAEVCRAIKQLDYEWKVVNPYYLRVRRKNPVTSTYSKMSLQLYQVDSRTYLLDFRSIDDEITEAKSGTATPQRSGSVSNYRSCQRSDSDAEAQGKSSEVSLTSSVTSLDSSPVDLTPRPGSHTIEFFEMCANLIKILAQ
Chain of AMP-activated protein kinase (AMPK) alpha-1/beta-1/gamma-1 (Homo sapiens) (Q9Y478 2-270 partner limits assumed): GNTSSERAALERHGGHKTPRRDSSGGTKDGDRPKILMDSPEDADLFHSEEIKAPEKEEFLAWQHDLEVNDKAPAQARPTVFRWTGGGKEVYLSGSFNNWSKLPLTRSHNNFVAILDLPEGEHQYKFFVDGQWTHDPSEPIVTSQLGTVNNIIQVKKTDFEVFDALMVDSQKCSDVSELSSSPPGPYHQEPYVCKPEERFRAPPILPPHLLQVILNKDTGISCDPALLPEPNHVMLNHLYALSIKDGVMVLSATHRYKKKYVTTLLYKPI

Calls of active or inactive are those of the source. The calls are words filed in the database; no cut-off is given here. Bounds are passed on as bounds.

Here are results for 24 molecules from ChEMBL document CHEMBL4406871, “Novel berberine-based derivatives with potent hypoglycemic activity” (Bioorg Med Chem Lett, 2019).

In the case of `COc1cc2c[n+]3c(cc2c(OC)c1OC)-c1cc2c(cc1CC3C(=O)O)OCO2.[Cl-]` (stereo unspecified), the Activity in [1] is listed as 9.1%.
The same measure, in the same setting: with `COc1cc2c(c(OC)c1)CC1c3cc4c(cc3CC(C(=O)O)N1C2)OCO4` (stereo unspecified) the figure was 9.65%.
With `COc1ccc(OC)c2c1CC1c3cc4c(cc3CC(C(=O)O)N1C2)OCO4` (stereo unspecified), the Activity in [1] worked out at 12.43%.
Still for that read-out and setting: the figure for `COc1ccc(OC)c2c[n+]3c(cc12)-c1cc2c(cc1CC3C(=O)O)OCO2.[Cl-]` (stereo unspecified) is 7.44%; for `COc1ccc2c(c1OC)C[N+]1(Cc3ccc(C(=O)O)cc3)CCc3cc4c(cc3C1C2)OCO4.[Cl-]` (stereo unspecified) it is 12.11%; for `CN(C)C(=N)NC(=N)N` [METFORMIN] it is 12.07%.
Still for that read-out and setting: with `COc1ccc2cc3[n+](cc2c1OC)C(C(=O)O)Cc1cc2c(cc1-3)OCO2.[Cl-]` (stereo unspecified) the figure was 1.88%.
As to `COc1cc2c(cc1OC)CN1C(C(=O)O)Cc3cc4c(cc3C1C2)OCO4` (stereo unspecified), in [1], the Activity was 16.76%. In addition, the outcome in [2] and in data set [3] was Active. Also, the “fold change (FC)” value in [4] came out at 3.23; in [5], 1.39; in data set [6] it was 1.2. In data set [7], the EC50 is above 100 µM.
As for `COc1ccc2cc3[n+](cc2c1OC)CCc1cc2c(cc1-3)OCO2.[Cl-]` [BERBERINE CHLORIDE], the Activity in data set [1] turned out to be 5.16%. Besides, the bioavailability in data set [8] was below 1%.
For `COc1cc2cc3[n+](cc2cc1OC)C(CC(=O)O)Cc1cc2c(cc1-3)OCO2.[Cl-]` (stereo unspecified), the Activity in data set [1] was determined as 15.31%.
Same read-out and setting: the figure for `COc1ccc2c(c1OC)C[N+]1(CC(=O)O)CCc3cc4c(cc3C1C2)OCO4.[Cl-]` (stereo unspecified) is 15.4%; for `COc1cc2c[n+]3c(cc2c(OC)c1OC)-c1cc2c(cc1CC3CC(=O)O)OCO2.[Cl-]` (stereo unspecified) it is 10.18%; for `COc1cc(OC)c2cc3[n+](cc2c1)C(C(=O)O)Cc1cc2c(cc1-3)OCO2.[Cl-]` (stereo unspecified) it is 8.62%.
Still for that read-out and setting: the figure for `COc1ccc2c(c1OC)C[N+]1(CCCCCC(=O)O)CCc3cc4c(cc3C1C2)OCO4.[Cl-]` (stereo unspecified) is 15.78%.
In [9], `O=C(O)C1CCC2C(C1)c1cc(OCc3ccccc3)ccc1N2C(=O)c1ccc(Cl)cc1` (stereo unspecified) came in with an Activity of 362 nM.
For `COc1ccc2c(c1OC)CN1C(CC(=O)O)Cc3cc4c(cc3C1C2)OCO4` (stereo unspecified), in data set [1], the Activity was 7.16%.
`COc1cc(OC)c2cc3[n+](cc2c1)C(CC(=O)O)Cc1cc2c(cc1-3)OCO2.[Cl-]` (stereo unspecified): the Activity in data set [1] is 9.02%.
`COc1ccc2c(c1OC)C[N+]1(CCCC(=O)O)CCc3cc4c(cc3C1C2)OCO4.[Cl-]` (stereo unspecified): in data set [1], the Activity is reported as 16%. Further, the “fold change (FC)” value stood at 1.32 in data set [5] and 1.15 in data set [6].
In the case of `COc1ccc(OC)c2c[n+]3c(cc12)-c1cc2c(cc1CC3CC(=O)O)OCO2.[Cl-]` (stereo unspecified), in data set [1], the Activity is listed as 9.44%.
Same read-out and setting: the figure for `COc1ccc2c(c1OC)CN1C(C(=O)O)Cc3cc4c(cc3C1C2)OCO4` (stereo unspecified) is 6.39%; for `COc1ccc2cc3[n+](cc2c1OC)C(CC(=O)O)Cc1cc2c(cc1-3)OCO2.[Cl-]` (stereo unspecified) it is 2.8%.
`COc1cc2cc3[n+](cc2cc1OC)C(C(=O)O)Cc1cc2c(cc1-3)OCO2.[Cl-]` (stereo unspecified): the Activity in data set [1] turned out to be 6.92%. The result in data set [2] and in data set [3] was Active. The molecule also registered an EC50 in [7] above 100 µM.
For `COc1ccc2c(c1OC)C[N+]1(CCCCC(=O)O)CCc3cc4c(cc3C1C2)OCO4.[Cl-]` (stereo unspecified), the Activity in data set [1] is reported as 14.52%.
With `CN(CCOc1ccc(CC2SC(=O)NC2=O)cc1)c1ccccn1` (stereo unspecified) [ROSIGLITAZONE], the Activity in [1] stood at 13.87%.

What is called EC50 is the concentration needed to bring the measured effect to its halfway point. Read a high EC50 as a need for much substance. Broadly, the bioavailability is the share of a dose that reaches the circulation, judged against a reference dose that is usually intravenous. Read a low bioavailability as little systemic uptake.
